Laboratory results published in patent US4818761A, “2-(4-pyridylaminomethyl)-benzimidazole derivatives having antiviral activity” (priority 1986, dated 1989).
In brackets after ≈: the same amount, converted by molar mass.

What was measured:
[1] = tested on: enterovirus type 70 (EV70); assay: Inhibition of EV70 plaque formation in LLC-MK2 cells; format: cell-based; conditions: for CI EV70 (C)/(A): CI = CD50 (LLC-MK2)/IC50 (plaque); for IC50: Enterovirus D, plaque reduction, LLC-MK2 cells, 33° C.
[2] = tested on: poliovirus type 2 (Polio2); assay: microbe, parasite or virus in culture; format: cell-based; conditions: for IC50: Enterovirus C, LLC-MK2, read-out: IC50 Polio2; for CI Polio2 (C)/(A): CI = CD50 (LLC-MK2)/IC50 (plaque)
[3] = tested on: coxsackievirus type B4 (CB4); assay: Inhibition of CB4 plaque formation in LLC-MK2 cells; format: cell-based; conditions: for CI CB4 (C)/(A): CI = CD50 (LLC-MK2)/IC50 (plaque); for IC50: Coxsackievirus, plaque reduction, LLC-MK2 cells, 37° C.
[4] = tested on: rhinovirus type 14 (HRV14); assay: Inhibition of HRV14 cytopathogenic effect (CPE) in HeLa cells; format: cell-based; conditions: for IC50: Enterovirus, HRV14, * Virus CPE inhibition assay, HeLa cells, 33° C.; for CI HRV14 (D)/(B): CI = CD50 (HeLa)/IC50 (virus CPE)
in vitro [5] = conditions: monkey, llc-mk2 cells
in vitro [6] = conditions: human, hela cells
[7] = tested on: enterovirus type 70 (EV70); assay: Inhibition of EV70 cytopathogenic effect (CPE) in LLC-MK2 cells; format: cell-based; conditions: for IC50: Enterovirus D, * Virus CPE inhibition assay, LLC-MK2 cells, 33° C.; for CI EV70 (C)/(A): CI = CD50 (LLC-MK2)/IC50 (virus CPE)
[8] = tested on: coxsackievirus type B4 (CB4); assay: Inhibition of CB4 cytopathogenic effect (CPE) in LLC-MK2 cells; format: cell-based; conditions: for IC50: Coxsackievirus, * Virus CPE inhibition assay, LLC-MK2 cells, 37° C.; for CI CB4 (C)/(A): CI = CD50 (LLC-MK2)/IC50 (virus CPE)
[9] = tested on: rhinovirus type 14 (HRV14); assay: Inhibition of HRV14 plaque formation in HeLa cells; format: cell-based; conditions: for CI HRV14 (D)/(B): CI = CD50 (HeLa)/IC50 (plaque); for IC50: Enterovirus, HRV14, plaque reduction, HeLa cells, 33° C.
CB4 strain 637 = assay: Anti-coxsackievirus activity in vivo, CB4-induced hypoglycemia in SJL/J mice; conditions: single, daily intraperitoneal doses as low as 20 mg/kg, initiated 2 hr after infection and continued for 5 days
Experimental: Anti-coxsackievirus activity, in vivo. Compound No. XII and XXI were examined for its activity against CB4-induced hypoglycemia in SJL/J mice. […] Blood specimens were collected from the tail vein of each mouse before and 2, 3, 4 and 5 days after infection for assaying its plasma glucose levels. The differences in mean relative plasma glucose of uninfected control and compound-treated groups or placebo groups were evaluated by Student's t-test.

[10] = Cytotoxicity, morphology of LLC-MK2 cells; conditions: monkey
[11] = Cytotoxicity, morphology of HeLa cells; conditions: human

SMILES	CI EV70 (C)/(A) [1]	IC50 [1]	IC50 [2]	CI CB4 (C)/(A) [3]	IC50 [3]	IC50 [4]	CC50 (in vitro [5])	CC50 (in vitro [6])	IC50 [7]	IC50 [8]	CI Polio2 (C)/(A) [2]	CI HRV14 (D)/(B) [9]	IC50 [9]	CI EV70 (C)/(A) [7]	CI HRV14 (D)/(B) [4]	onset of CB4-induced hypoglycemia (CB4 strain 637)	CI CB4 (C)/(A) [8]	CC50 [10]	CC50 [11]
CCOc1ccc2[nH]c(CNc3ccncc3)nc2c1 [IV]	> 3	39 µg/mL (≈ 145 µM)	460 µg/mL (≈ 1710 µM)	> 1	93 µg/mL (≈ 347 µM)	> 100 µg/mL	> 100 µg/mL	> 100 µg/mL											
CC(C)(C)C(=O)Cn1c(CNc2ccncc2)nc2ccccc21 [LIII]						> 100 µg/mL	> 2000 µg/mL		> 100 µg/mL	> 100 µg/mL									
CCOCCn1c(CNc2ccncc2)nc2ccccc21 [LIV]						> 100 µg/mL	> 2000 µg/mL		> 100 µg/mL	> 100 µg/mL									
Clc1ccc(-n2c(CNc3ccncc3)nc3ccccc32)cc1 [LIX]	> 833	1.2 µg/mL (≈ 3.58 µM)	9.6 µg/mL (≈ 28.7 µM)	> 1,176	0.85 µg/mL (≈ 2.54 µM)		> 1000 µg/mL	> 100 µg/mL			> 111	> 4	25 µg/mL (≈ 74.7 µM)						
Cl.Fc1cccc(-n2c(CNc3ccncc3)nc3ccccc32)c1 [LVIII, 1-(3-fluorophenyl)-2-(4-pyridylaminomethyl)benzimidazole hydrochloride]	> 200	5 µg/mL	> 100 µg/mL	> 278	3.6 µg/mL	> 100 µg/mL	> 1000 µg/mL	> 100 µg/mL											
Fc1ccccc1-n1c(CNc2ccncc2)nc2ccccc21 [LVII]	83	24.1 µg/mL (≈ 75.7 µM)	> 100 µg/mL	233	8.6 µg/mL (≈ 27 µM)	> 100 µg/mL	2000 µg/mL (≈ 6280 µM)	> 100 µg/mL											
CC(=O)OCCOCn1c(CNc2ccncc2)nc2ccccc21 [LV]	> 63	1.6 µg/mL (≈ 4.7 µM)	17.6 µg/mL (≈ 51.7 µM)	8	11.9 µg/mL (≈ 35 µM)		> 100 µg/mL	> 100 µg/mL			> 6	> 6	15.6 µg/mL (≈ 45.8 µM)						
CCc1ccccc1-n1c(CNc2ccncc2)nc2ccccc21 [LXV]						> 100 µg/mL	> 100 µg/mL	> 100 µg/mL	> 100 µg/mL	> 100 µg/mL									
c1ccc2c(c1)nc(CNc1ccncc1)n2-c1nccs1 [LXXIII]						> 100 µg/mL	> 100 µg/mL	> 100 µg/mL	> 100 µg/mL	> 100 µg/mL									
c1ccc(Oc2ccc3[nH]c(CNc4ccncc4)nc3c2)cc1 [LXXIV]							> 100 µg/mL	> 100 µg/mL	> 100 µg/mL	> 100 µg/mL		> 6	17.8 µg/mL (≈ 56.3 µM)						
Cc1ccc(-n2c(CNc3ccncc3)nc3ccccc32)cc1F [LXXI]	> 25	4 µg/mL (≈ 12 µM)	> 50 µg/mL	> 31	3.2 µg/mL (≈ 9.63 µM)		> 100 µg/mL	> 100 µg/mL				> 2	49.7 µg/mL (≈ 150 µM)						
CCc1cc2c(cc1Cl)nc(CNc1ccncc1)n2-c1ccccc1 [LXXV, 1-phenyl-2-(4-pyridylaminomethyl)-5-chloro-6-ethylbenzimidazole]						5.6 µg/mL (≈ 15.4 µM)	> 100 µg/mL	17.8 µg/mL (≈ 49.1 µM)	> 56.2 µg/mL	> 100 µg/mL				> 2	3				
Cc1ccc(-n2c(CNc3ccncc3)nc3ccccc32)cc1C [LXX]	> 15	6.5 µg/mL (≈ 19.8 µM)	> 50 µg/mL	> 6	16 µg/mL (≈ 48.7 µM)		> 100 µg/mL	> 100 µg/mL				> 2	40.7 µg/mL (≈ 124 µM)						
Brc1ccc(-n2c(CNc3ccncc3)nc3ccccc32)cc1 [LX]	> 53	1.9 µg/mL (≈ 5.01 µM)	> 50 µg/mL	> 100	1 µg/mL (≈ 2.64 µM)		> 100 µg/mL	> 100 µg/mL				> 3	39.9 µg/mL (≈ 105 µM)						
CC(C)c1ccc2[nH]c(CNc3ccncc3)nc2c1 [VI]	> 476	2.1 µg/mL (≈ 7.88 µM)	> 100 µg/mL	> 15	69 µg/mL (≈ 259 µM)		> 1000 µg/mL	56.2 µg/mL (≈ 211 µM)				3	16.5 µg/mL (≈ 61.9 µM)						
CCCn1c(CNc2ccncc2)nc2ccccc21 [XII]	> 465	4.3 µg/mL (≈ 16.1 µM)	3.6 µg/mL (≈ 13.5 µM)	> 4,255	0.47 µg/mL (≈ 1.76 µM)		> 2000 µg/mL				> 556		> 50 µg/mL			inhibited the onset of CB4-induced hypoglycemia			
Cc1ccc2nc(CNc3ccncc3)n(-c3ccccc3)c2c1 [XLIII]						> 100 µg/mL	> 100 µg/mL	> 100 µg/mL	17.8 µg/mL (≈ 56.6 µM)	3.2 µg/mL (≈ 10.2 µM)				> 6			> 31		
CCc1ccc2c(c1)nc(CNc1ccncc1)n2-c1ccccc1 [XLIV]						17.8 µg/mL (≈ 54.2 µM)	> 100 µg/mL	> 100 µg/mL	3.2 µg/mL (≈ 9.74 µM)	6.8 µg/mL (≈ 20.7 µM)				> 31	> 6		> 15		
CC(C)Cn1c(CNc2ccncc2)nc2ccccc21 [XLIX]		> 100 µg/mL				> 100 µg/mL	> 2000 µg/mL			2.1 µg/mL (≈ 7.49 µM)							> 952		
Fc1ccc2nc(CNc3ccncc3)n(-c3ccccc3)c2c1 [XLVIII]									> 100 µg/mL	> 100 µg/mL								> 100 µg/mL	
Clc1ccc2nc(CNc3ccncc3)n(-c3ccccc3)c2c1 [XLVII]	> 130	2.3 µg/mL (≈ 6.87 µM)	> 100 µg/mL	> 250	1.2 µg/mL (≈ 3.58 µM)		> 300 µg/mL	17.8 µg/mL (≈ 53.2 µM)				4	4.4 µg/mL (≈ 13.1 µM)						
CCc1ccc2nc(CNc3ccncc3)n(-c3ccccc3)c2c1 [XLV]	35	1.6 µg/mL (≈ 4.87 µM)	> 100 µg/mL	11	5 µg/mL (≈ 15.2 µM)	5.6 µg/mL (≈ 17.1 µM)	56.2 µg/mL (≈ 171 µM)	56.2 µg/mL (≈ 171 µM)							10				
Cc1cc2nc(CNc3ccncc3)[nH]c2cc1Cl [XXIX]	118	1.5 µg/mL (≈ 5.5 µM)	52 µg/mL (≈ 191 µM)	15	11.5 µg/mL (≈ 42.2 µM)		177 µg/mL (≈ 648 µM)	56.2 µg/mL (≈ 206 µM)			3	15	3.8 µg/mL (≈ 13.9 µM)						
Cc1cc2nc(CNc3ccncc3)[nH]c2cc1Br [XXVIII]	88	2 µg/mL (≈ 6.31 µM)	34 µg/mL (≈ 107 µM)	13	13.5 µg/mL (≈ 42.6 µM)						5	15	3.6 µg/mL (≈ 11.3 µM)					177 µg/mL (≈ 557 µM)	56.2 µg/mL (≈ 177 µM)
Clc1cc(Cl)c2nc(CNc3ccncc3)[nH]c2c1 [XXVII]						> 17.8 µg/mL	> 100 µg/mL	17.8 µg/mL (≈ 60.7 µM)	> 100 µg/mL										
Cc1cc(Cl)c2nc(CNc3ccncc3)[nH]c2c1 [XXVI]						> 56.2 µg/mL	1410 µg/mL (≈ 5180 µM)	56.2 µg/mL (≈ 206 µM)	> 100 µg/mL										
Cc1cc(Cl)cc2[nH]c(CNc3ccncc3)nc12 [XXV]						17.8 µg/mL (≈ 65.3 µM)	707 µg/mL (≈ 2590 µM)	17.8 µg/mL (≈ 65.3 µM)	56.2 µg/mL (≈ 206 µM)					13					
COc1cc2nc(CNc3ccncc3)[nH]c2cc1Cl [XXXIII]									56.2 µg/mL (≈ 195 µM)					> 2				> 100 µg/mL	
Cn1c(CNc2ccncc2)nc2cc(Cl)ccc21 [XXXVIII]		115 µg/mL (≈ 422 µM)	> 100 µg/mL	> 2	56 µg/mL (≈ 205 µM)								> 50 µg/mL					> 100 µg/mL	
CCc1ccc2c(c1)nc(CNc1ccncc1)n2C [XXXVII]	> 5	22 µg/mL (≈ 82.6 µM)	> 100 µg/mL		> 50 µg/mL								20 µg/mL (≈ 75.1 µM)					> 100 µg/mL	
